Values of other authors, collected in PMC9430692, “BRET-Based Self-Cleaving Biosensors for SARS-CoV-2 3CLpro Inhibitor Discovery” (Microbiology Spectrum, 2022).

Test system: SARS-CoV-2
Conditions: Vero E6 cells, MOI 0.01; ref [8]; read-out: Reported EC50 against SARS-CoV-2

In the case of `CC(C)(C)NC(=O)N[C@H](C(=O)N1C[C@H]2[C@@H]([C@H]1C(=O)NC(CC1CCC1)C(=O)C(N)=O)C2(C)C)C(C)(C)C` (stereo partly shown) [Boceprevir], the EC50 is given as 15.6 µM.
